Counter-ions that a name gives are not always drawn.
Experiments:
[1] = tested on: cAMP-specific phosphodiesterase (PDE IV); assay: Inhibition of the PDE IV enzyme derived from a dog trachea; format: biochemical; settings: test compound 10^−6 M; PDE IV from dog tracheal smooth muscle; substrate cAMP 1 μM
Description: cAMP-specific phosphodiesterase (PDE IV) was purified from a dog tracheal smooth muscle according to the method of Torphy et al. [Molecular Pharmacol., 37, 206-214 (1990)]. The PDE activity was measured by the following two steps according to the method of Kincaid and Manganiello et al. [Method in Enzymology (J. D. Corbin and R. A. Jonson, Eds.), 199, 457-470 (1988)]. Using [^3]cAMP (at a final concentration of 1 μM) as a substrate, the reaction was carried out in a standard mixture containing N,N-bis(2-hydroxyethyl)-2-aminoethanesulfonic acid (50 mM, pH=7.2), MgCl2 (1 mM), and soybean trypsin inhibitor (0.1 mg/ml). The reaction was initiated by adding the enzyme, followed by incubation at 30° C. for 10 to 30 minutes. After stopping the reaction with hydrochloric acid, the generated […] was completely converted to adenosine by 5′-nucleotidase.
The resultant was subjected to chromatography on DEAE-Sephadex A-25, and radio activity of the eluted [^3H] adenosine was counted using a scintillation counter. Each of the test drugs was dissolved in DMSO (final concentration 1.7%) and then added to the mixture.

Structure (SMILES) | melting point | Enzyme Inhibitory Activity (%, 10^−6 M) [1]
COc1ccc(-c2cccc(C(=O)O)c2)c2c1OC(C)(C)C2 | 220 to 225 °C | –
COc1ccc(C(=O)Cc2c(Cl)cncc2Cl)c2c1OC(C)(C)O2 | 133 to 134 °C | –
COc1ccc(C(=O)Cc2ccncc2)c2cc(-c3ccccn3)oc12.Cl.Cl [Compound 117, 7-Methoxy-4-[1-oxo-2-(4-pyridyl)ethyl]-2-(2-pyridyl)-benzofuran.2 hydrochloride] | – | 87%
COc1ccc(/C=C/c2ccncc2)c2c1OC1(CCCC1)C2.Cl [Compound 74, (E)-7-Methoxy-4-[2-(4-pyridyl)ethenyl]-spiro[2,3-dihydrobenzofuran-2,1′-cyclopentane].hydrochloride] | – | 73%
COc1ccc(C(Cc2c(Cl)cncc2Cl)OC)c2c1OC(C)(C)C2 (racemic) [Compound 62, (±)-4-[2-(3,5-Dichloro-4-pyridyl)-1-methoxyethyl]-7-methoxy-2,2-dimethyl-2,3-dihydrobenzofuran] | – | 63%
COc1ccc(C(=O)Cc2c(Cl)cncc2Cl)c2c1OCO2 | 170 to 171 °C | –
COc1ccc(C(=O)Cc2c(Cl)cncc2Cl)c2cc(C(=O)c3ccccc3)oc12 | 213 to 215 °C | –
COc1ccc(C(=Cc2ccncc2)c2ccccc2)c2c1OC(C)(C)C2 [Compound 70, 7-Methoxy-2,2-dimethyl-4-[1-phenyl-2-(4-pyridyl)-ethenyl]-2,3-dihydrobenzofuran] | – | 68%
COc1ccc(C(=O)Cc2ccncc2)c2c1OC1(CCCCC1)CC2.Cl [Compound 128, 8-Methoxy-5-[1-oxo-2-(4-pyridyl)ethyl]-spiro[3,4-dihydrobenzopyran-2,1′-cyclohexane].hydrochloride] | – | 62%
COc1ccc(/C=C/c2c(Cl)cncc2Cl)c2c1OCC2C (racemic) | 117 to 118 °C | –
COc1ccc(C(C)=Cc2ccncc2)c2c1OC1(CCCC1)C2 [Compound 75, 7-Methoxy-4-[1-methyl-2-(4-pyridyl)ethenyl]-spiro[2,3-dihydrobenzofuran-2,1′-cyclopentane]] | – | 72%
COc1ccc(C(=O)Cc2ccncc2)c2c1O[C@@H]1CCCC[C@H]21.Cl (racemic) [Compound 105, (±)-cis-6-Methoxy-9-[1-oxo-2-(4-pyridyl)ethyl]-1,2,3,4,4a,9b-hexahydrodibenzofuran.hydrochloride] | – | 66%
COc1ccc(C(=O)Cc2c(Cl)cccc2Cl)c2cc(C(=O)N(C)c3cccc(F)c3)oc12 | 198 to 199 °C | –
COc1ccc(C(=O)Nc2c(Cl)cncc2Cl)c2c1OCC2CC(=O)NCc1ccncc1 (racemic) [Compound 26, (±)-4-[(3,5-Dichloro-4-pyridyl)aminocarbonyl]-7-methoxy-3-[(4-pyridylmethyl)aminocarbonyl]methyl-2,3-dihydrobenzofuran] | – | 79%
COc1ccc(C(C)(C#N)Cc2ccncc2)c2c1OC1(CCCC1)C2.Cl (racemic) [Compound 65, (±)-4-[1-Cyano-1-methyl-2-(4-pyridyl)ethyl]-7-methoxy-spiro[2,3-dihydrobenzofuran-2,1′-cyclopentane].hydrochloride] | – | 74%
COc1ccc(C(=Cc2ccncc2)c2ccccc2)c2c1OC1(CCCC1)O2 [Compound 139, 4-Methoxy-7-[1-phenyl-2-(4-pyridyl)ethenyl]-spiro[1,3-benzodioxole-2,1′-cyclopentane]] | – | 54%
COc1ccc(/C=C/c2c(Cl)cncc2Cl)c2c1OC1(CCCCC1)C2.CS(=O)(=O)O [Compound 76, (E)-4-[2-(3,5-Dichloro-4-pyridyl)ethenyl]-7-methoxy-spiro[2,3-dihydrobenzofuran-2,1′-cyclohexane].methanesulfonate] | – | 93%
COc1ccc(/C=C/c2c(Cl)cncc2Cl)c2c1OC(C)(C)C2 | 114 to 118 °C | –
COc1ccc(C(=O)Cc2ccncc2)c2c1OCCO2.Cl | 226 to 228 °C | –
COc1ccc(C(=O)Cc2ccncc2)c2c1OCCCO2.Cl | 205 to 208 °C | –
COc1ccc(/C=C/c2ccncc2)c2cc(-c3ccccn3)oc12.Cl.Cl [Compound 85, (E)-7-Methoxy-2-(2-pyridyl)-4-[2-(4-pyridyl)ethenyl]-benzofuran.2 hydrochloride] | – | 69%

Structure (SMILES) | melting point | Enzyme Inhibitory Activity (%, 10^−6 M) [1]
COc1ccc(C(=O)Cc2ccncc2)c2c1CC1(CCCC1)O2 | 101 to 103 °C | –
COc1ccc(C(=O)Nc2c(Cl)cncc2Cl)c2c1OCC2CC(=O)Nc1cccnc1 (racemic) [Compound 19, (±)-4-[(3,5-Dichloro-4-pyridyl)aminocarbonyl]-7-methoxy-3-[(3-pyridyl)aminocarbonyl]methyl-2,3-dihydro-benzofuran] | – | 87%
CCOC(=O)Cc1coc2c(OC)ccc(C(=O)Cc3c(Cl)cccc3Cl)c12 | 153 to 154 °C | –
COc1ccc(CCc2ccncc2)c2c1OCCCO2.Cl | 185 to 187 °C | –
COc1ccc(/C=C/c2c(Cl)cncc2Cl)c2cc(-c3ccncc3)oc12 | 204 to 206 °C | –
CCN1CCN(C(=O)c2cc3c(C(=O)Cc4c(Cl)cncc4Cl)ccc(OC)c3o2)CC1.O=C(O)/C=C/C(=O)O | 196 to 197 °C | –
COc1ccc(C(=O)Nc2cccc(C(=O)O)c2)c2cc(C(=O)c3ccccc3)oc12 | 262 to 263 °C | –
COc1ccc(C(=O)Cc2c(Cl)cncc2Cl)c2c1OCCO2 | 158 to 160 °C | –
COc1ccc(C(=O)Nc2c(Cl)cncc2Cl)c2c1OCCCCO2 | 115 to 117 °C | –
COc1ccc(C(=O)Nc2c(F)cccc2F)c2c(CC(=O)OCc3ccccc3)coc12 | 223 to 224 °C | –
COc1ccc(C(=O)Nc2c(Cl)cccc2Cl)c2c1OCCO2 | 176 to 177 °C | –
CCOC(=O)c1ccc(-c2ccc(OC)c3c2OCCO3)cc1 | 141 to 141.5 °C | –
COc1ccc(C(=O)Nc2ccncc2)c2c1OC(C)(C)O2 | 180 to 181 °C | –
COc1ccc(C(=O)Cc2c(Cl)cncc2Cl)c2cc(C#N)oc12 | 197 to 199 °C | –
COc1ccc(/C=C/C(=O)Nc2ccncc2)c2c1OC1(CCCC1)C2 | 124 to 128 °C | –
COc1ccc(-c2ccc(C(=O)O)cc2)c2c1OC(C)(C)C2 | 249 to 252 °C | –
COc1ccc(C(=O)Cc2c(Cl)cncc2Cl)c2c(CC(=O)O)coc12 | 192 to 194 °C | –
COc1ccc(C(=O)Nc2ccncc2)c2c1CC1(CCCC1)O2.CS(=O)(=O)O | 164 °C (dec.) | –
CCOC(=O)c1cccc(NC(=O)c2ccc(OC)c3c2OCCO3)c1 | 174 to 175 °C | –
COc1ccc(C(=O)Cc2c(Cl)cncc2Cl)c2c1OC(c1ccccc1)(c1ccccc1)O2 | 156 to 157 °C | –
CCOC(=O)Cc1coc2c(OC)ccc(C(=O)Cc3ccncc3)c12 | 111 to 117 °C | –

Structure (SMILES) | melting point | Enzyme Inhibitory Activity (%, 10^−6 M) [1]
COc1ccc(C(=O)Nc2c(Cl)cncc2Cl)c2c1OCC2 | 196 to 197 °C | –
COC(=O)c1ccc(-c2ccc(OC)c3c2CC(C)(C)O3)cc1 | 116 to 122 °C | –
COc1ccc(-c2ccc(C(=O)O)cc2)c2c1OCCO2 | 281 to 284 °C | –
COc1ccc(C(=O)Nc2c(C)cccc2C)c2c(CC(=O)OCc3ccccc3)coc12 | 202 to 204 °C | –
COc1ccc(C(C)=Cc2ccncc2)c2c1OC1(CCCC1)C2 (as salt: salt) [Compound 75, 7-Methoxy-4-[1-methyl-2-(4-pyridyl)ethenyl]-spiro[2,3-dihydrobenzofuran-2,1′-cyclopentane]] | 85 to 87 °C | –
COC1(OC)CC=C(C(Cc2ccncc2)c2ccccc2)C2=C1OC(C)(C)C2 (racemic) [Compound 47, (±) 7-Methoxy-2,2-dimethyl-7-methoxy-4-[1-phenyl-2-(4-pyridyl)ethyl]-2,3-dihydrobenzofuran] | 78 to 81 °C | –
COc1ccc(CNc2ccncc2)c2c1OCC2C (racemic) | 138 to 145 °C | –
COc1ccc(C(=O)Cc2c(Cl)cncc2Cl)c2c1OC(C)(C)C2 | 127 to 131 °C | –
COc1ccc(C(=O)Nc2c(Cl)cncc2Cl)c2c1CC1(CCCC1)O2 | 156 to 158 °C | –
COc1ccc(C(=O)Nc2c(Cl)cncc2Cl)c2cc(Cc3ccccc3)oc12 | 141 to 142 °C | –
COc1ccc(C(=O)Nc2c(Cl)cncc2Cl)c2c1OCCCO2 | 149 to 150 °C | –
COc1ccc(C(=O)Cc2c(Cl)cncc2Cl)c2c(CC(=O)OCc3ccccc3)coc12 | 132 to 133 °C | –
COc1ccc(C=C(C#N)C#N)c2c1OC(C)(C)C2 | 198 to 200 °C | –
COc1ccc(C(=O)Nc2c(Cl)cncc2Cl)c2c1OCCO2 | 143 to 145 °C | –
COc1ccc(C(=O)Cc2c(Cl)cccc2Cl)c2c1OCCO2 | 154 to 155 °C | –
COc1ccc(C(=O)Cc2ccncc2)c2c1OC(C)(C)C2 | 107 to 111 °C | –
COc1ccc(C(C)=Cc2ccncc2)c2c1OC(C)(C)C2 | 85 to 87 °C | –
COc1ccc(C(=O)Cc2c(Cl)cncc2Cl)c2c1OCC2CC(=O)OCc1ccccc1 (stereo not drawn) | 120 to 122 °C | –
COC(=O)c1cccc(-c2ccc(OC)c3c2CC(C)(C)O3)c1 | 89 to 91 °C | –
CCOC(=O)Cc1coc2c(OC)ccc(C(=O)Cc3c(Cl)cncc3Cl)c12 | 105 to 115 °C | –
COc1ccc(C(=O)Nc2cccc(C(=O)O)c2)c2c1OCCO2 | 283 to 284 °C | –

Source: US6716987B1, “Derivatives of benzofuran or benzodioxazole compounds” (Kyowa Hakko Kogyo Co., Ltd., priority 1995, dated 2004)
